This is an account of results in patent US8653274B2, “Compounds suitable as precursors to compounds that are useful for imaging amyloid deposits” (AstraZeneca AB, priority 2008, dated 2014).

In this assay the target is amyloid deposits (Homo sapiens, UniProt P05067). Kind of assay: competition binding assay described in WO2007/086800. To be noted: unlabeled compound.
amyloid deposits, sequence (P05067 672-711 limits assumed): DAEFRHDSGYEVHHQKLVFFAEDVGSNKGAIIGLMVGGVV

Turning to `CNc1ccc(-c2cc3cc(O)ccc3o2)c(F)n1` [2-(2-Fluoro-6-methylamino-pyridin-3-yl)-benzofuran-5-ol], the IC50 (commonly the concentration needed to halve the response being measured) amounted to 13 nM.
